Laboratory results as given in publication PMC5535168 (Toxins, 2017).
“And” between values parts separate entries of the source, which are not always exact repeats. Equal entries are not always repeated. Where two headings read alike, the source gives them in different places. Where a SMILES comes first, the peptide text is derived from it. Where no end group is shown, it is not given here. The star is where a group is joined. Biotin = O=C1N[C@H]2[C@H](CS[C@H]2CCCCC(=O)*)N1

Columns and labels:
mAb AVR1675 = type: binding, mouse
AVR1675 mAb = type: binding, mouse
[1] = molecular target: AVR1675 (LFG2 3F3:3D10 IgG1 kappa) (mouse); assay: ELISA
Sequence of AVR1675 (LFG2 3F3:3D10 IgG1 kappa) (mouse) (heavy, as listed by the source): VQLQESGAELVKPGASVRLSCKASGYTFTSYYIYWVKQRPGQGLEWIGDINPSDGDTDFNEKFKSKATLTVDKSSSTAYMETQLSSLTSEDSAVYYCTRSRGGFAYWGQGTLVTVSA

CC[C@H](C)[C@H](NC(=O)[C@H](CCC(=O)O)NC(=O)[C@H](CC(=O)O)NC(=O)[C@H](CCC(N)=O)NC(=O)[C@H](Cc1c[nH]cn1)NC(=O)[C@@H](N)[C@@H](C)O)C(=O)N[C@@H](Cc1ccc(O)cc1)C(=O)N[C@@H](CCC(=O)O)C(=O)N[C@@H](CCC(N)=O)C(=O)N[C@@H](CCCCNC(=O)CCCC[C@@H]1SC[C@@H]2NC(=O)N[C@@H]21)C(=O)O [Native LF core sequence] (H-THQDEIYEQK(Biotin)-OH)
% R of Consensus (mAb AVR1675): 14%
Response (nm) (mAb AVR1675): 0.7024 nm
Kd (mAb AVR1675; read-out: KD (M) *): > 1e-07 M

CC[C@H](C)[C@H](NC(=O)[C@H](CC(N)=O)NC(=O)[C@@H]1CCCN1)C(=O)N[C@@H](C)C(=O)N[C@@H](CCC(=O)O)C(=O)N[C@@H](CCC(N)=O)C(=O)N[C@@H](Cc1ccc(O)cc1)C(=O)N[C@H](C(=O)N[C@@H](Cc1c[nH]cn1)C(=O)N[C@@H](CCC(N)=O)C(=O)N[C@@H](CC(=O)O)C(=O)N[C@@H](CCC(=O)O)C(=O)N[C@H](C(=O)N[C@@H](Cc1ccc(O)cc1)C(=O)N[C@@H](CCC(=O)O)C(=O)N[C@@H](CCC(N)=O)C(=O)N[C@H](C(=O)N[C@@H](Cc1c[nH]cn1)C(=O)N[C@@H](CO)C(=O)N[C@@H](CCCCN)C(=O)NCC(=O)N[C@@H](CC(C)C)C(=O)N[C@@H](Cc1ccc(O)cc1)C(=O)N[C@H](C(=O)N1CCC[C@H]1C(=O)N[C@@H](CCC(=O)O)C(=O)N[C@@H](CO)C(=O)N[C@@H](CCCNC(=N)N)C(=O)NCC(=O)NCC(=O)NCC(=O)N[C@@H](CO)C(=O)N[C@@H](CCCCNC(=O)CCCC[C@@H]1SC[C@@H]2NC(=O)N[C@@H]21)C(=O)O)C(C)C)C(C)C)[C@@H](C)CC)[C@@H](C)O [Native LF extended sequence]
% R of Consensus (mAb AVR1675): 14%
Response (nm) (mAb AVR1675): 0.7024 nm
Kd (mAb AVR1675; read-out: KD (M) *): > 1e-07 M

CC[C@H](C)[C@H](NC(=O)[C@H](CCC(=O)O)NC(=O)[C@H](CC(=O)O)NC(=O)[C@H](CCCCN)NC(=O)[C@H](Cc1ccccc1)NC(=O)[C@@H](N)[C@@H](C)O)C(=O)NCC(=O)NCC(=O)NCC(=O)N[C@@H](CO)C(=O)N[C@@H](CCCCNC(=O)CCCC[C@@H]1SC[C@@H]2NC(=O)N[C@@H]21)C(=O)O [φC8-derived Reference Sequence] (H-TFKDEIGGGSK(Biotin)-OH; N-terminus and C-terminus assumed)
% R of Consensus (mAb AVR1675): 100%
Binding relative to the LF-sequence derived oligopeptides (mAb AVR1675): seven-fold higher binding
R (binding response, running text) (mAb AVR1675): 4.84 nm
Response (nm) (mAb AVR1675): 4.8387 nm
Kd (mAb AVR1675; read-out: KD (M) *): 1.39e-08 M
Kd (mAb AVR1675; read-out: KD (equilibrium affinity constant)): 9.97e-09 M

TVRD D Q I [φD7]
Phage ELISA Reactivity (class) (AVR1675 mAb): High (OD 1.78) (key: High = OD > 1.0; Intermediate = OD 0.5–1.0; Low = OD < 0.5)

TVRD EP L [φE12]
Phage ELISA Reactivity (class) (AVR1675 mAb): High (OD 1.70) (key: High = OD > 1.0; Intermediate = OD 0.5–1.0; Low = OD < 0.5)

TFRDEPMGGGS (not fully specified) [phage-displayed peptide T-F-R-D-E-P-M (phage clone φB9)]
OD (phage ELISA reactivity) [1]: 1.71 OD

TWRDDIPGGGS (not fully specified) [phage-displayed peptide T-W-R-D-D-I-P (phage clone φD8)]
OD (phage ELISA reactivity) [1]: 0.79 OD

TVRDDQIGGGS (not fully specified) [phage-displayed peptide T-V-R-D-D-Q-I (phage clone φD7)]
OD (phage ELISA reactivity) [1]: 1.78 OD

TFKDDGYGGGS (not fully specified) [phage-displayed peptide T-F-K-D-D-G-Y (phage clone φD4)]
OD (phage ELISA reactivity) [1]: 0.08 OD

TVRDEPLGGGS (not fully specified) [phage-displayed peptide T-V-R-D-E-P-L (phage clone φE12)]
OD (phage ELISA reactivity) [1]: 1.7 OD

TFLDDAPGGGS (not fully specified) [phage-displayed peptide T-F-L-D-D-A-P (phage clone φE2)]
OD (phage ELISA reactivity) [1]: 1.22 OD

TFKDDLFGGGS (not fully specified) [phage-displayed peptide T-F-K-D-D-L-F (phage clone φC7)]
OD (phage ELISA reactivity) [1]: 1.56 OD

TFKDDIHGGGS (not fully specified) [phage-displayed peptide T-F-K-D-D-I-H (phage clone φC9)]
OD (phage ELISA reactivity) [1]: 1.33 OD

TYLDDLYGGGS (not fully specified) [phage-displayed peptide T-Y-L-D-D-L-Y (phage clones φB6 and φD11)]
OD (phage ELISA reactivity) [1]: 1.77 OD and 1.7 OD

TYRDDPPGGGS (not fully specified) [phage-displayed peptide T-Y-R-D-D-P-P (phage clone φE5)]
OD (phage ELISA reactivity) [1]: 1.55 OD

TYKDDIRGGGS (not fully specified) [phage-displayed peptide T-Y-K-D-D-I-R (phage clones φB5 and φD2)]
OD (phage ELISA reactivity) [1]: 1.65 OD and 1.78 OD

TVLDDVAGGGS (not fully specified) [phage-displayed peptide T-V-L-D-D-V-A (phage clone φC2)]
OD (phage ELISA reactivity) [1]: 0.36 OD
